Each molecule was assayed on Hedgehog signaling pathway (assay: Gli-Luc luciferase reporter gene assay in C3H10T1/2/Gli-Luc cells under Shh-N stimulation). Settings: Mus musculus, C3H 10T1/2, 24 h, luciferase RLU, read-out: biological activity: IC50 of the inhibitory activities of compounds on the hedgehog pathway.
Type: cell-based
Description: The luciferase (Gli-Luc) reporter gene with Gli response element was transfected into C3H10T1/2 cells, under Shh-N stimulation conditions, determine the Hedgehog signaling pathway inhibitors through the detection of gene expression in cell activity report. In this study, we evaluated the inhibitory effects of compounds on Hedgehog signaling pathway in the IC50 value of the compound as an index.
Cell lines: C3H10T1/2/Gli-Luc stable cell line • C3H10T1/2/Gli-Luc Cell culture medium (DMEM/high glucose HyClone, #SH30022.01B; 10% serum Hyclone, #SV30087; 0.4% Hygromycin B Roche, #13398200) • 0.25% Trypsin-EDTA (Gibco, #25200)
Shh-N, HEK293/SHH-N stable cell culture supernatant
Inoculate the logarithmic growth phase of C3H10T1/2/Gli-Luc cells into a 96-well culture plate with 20000 cells per well, cells were cultured in a 37° C., 5% CO2 incubator overnight. The next day, the compounds were diluted in the following ways: the positive compound GDC0449 (1 mM) and the compounds (1 mM) to be measured were serially diluted to 7 concentrations by DMSO according to 1:3 and 1:10 respectively, the eighth is for DMSO control, and then diluted with fresh medium 100 times. The medium of the cells cultured overnight was removed, 80 μL fresh culture medium was added per well, then 20 μL gradiently diluted positive compound and compounds to be measured and 100 μL 30 nM Shh-N containing conditioned medium were added, each concentration repeated 2 wells, at the same time, positive and negative reference well were set (i.e. Shh Ctrl: 80 μL fresh medium+20 μL 1% DMSO containing medium+100 μL 30 nM Shh-N containing conditioned medium; Unstimulated Ctrl: 180 μL fresh medium+20 μL 1% DMSO containing medium), cells were cultured in the incubator for further 24 h.
Intracellular luciferase activity detection: take the cells out of 96-well plate, discard the culture medium, the cells were washed with PBS twice, then each well added with 20 μL lysate (Promega E1531), oscillate pyrolysis at room temperature for 30 min. 5 μL cell lysates were transferred to 384-well plate (Greiner 781074), then each well was added with 25 μL luciferase reaction liquid (Promega E1501), after rapid mixed, immediately placed into the VarioSkan Flash multi-function reading instrument to read the relative light units (RLU) value.
Data analysis: using Prism's GraphPad 5 for data analysis. RLU reading to the logarithmic mapping of compound concentration on behalf of luciferase activity, and then curve fitting using the following equation to give IC50 value, Y (RLU)=minimum+(maximum−minimum)/(1+10^(log of compound concentration−Log IC50)).

| Compound | IC50 |
| --- | --- |
| Cc1cn(-c2ccc(N3C[C@@H](C)O[C@@H](C)C3)cc2)c(=O)c2cccc(-c3ccc(Cl)cc3)c12 [Embodiment 51] | 100 to 500 nM |
| Cc1cn(-c2ccc(N3C[C@@H](C)O[C@@H](C)C3)cc2)c(=O)c2cccc(-c3ccc(C#N)cc3)c12 [Embodiment 52] | 100 to 500 nM |
| Cc1cn(-c2ccc(N3C[C@@H](C)O[C@@H](C)C3)cc2)c(=O)c2cccc(-c3ccccn3)c12 [Embodiment 53] | 500 to 1000 nM |
| Cc1cn(-c2ccc(N3C[C@@H](C)O[C@@H](C)C3)cc2)c(=O)c2cccc(-c3cncnc3)c12 [Embodiment 54] | 1000 to 5000 nM |
| Cc1cn(-c2ccc(N3C[C@@H](C)O[C@@H](C)C3)cc2)c(=O)c2cccc(-c3ccc(C#N)nc3)c12 [Embodiment 56] | 500 to 1000 nM |
| Cc1cn(-c2ccc(N3C[C@@H](C)O[C@@H](C)C3)cc2)c(=O)c2cccc(-c3ccc(C#N)cc3F)c12 [Embodiment 60] | 100 to 500 nM |
| Cc1cc(-c2cccc3c(=O)n(-c4ccc(N5C[C@@H](C)O[C@@H](C)C5)cc4)cc(C)c23)ccc1C#N [Embodiment 61] | 100 to 500 nM |
| Cc1cc(C#N)ccc1-c1cccc2c(=O)n(-c3ccc(N4C[C@@H](C)O[C@@H](C)C4)cc3)cc(C)c12 [Embodiment 62] | 100 to 500 nM |
| Cc1cn(-c2ccc(N3C[C@@H](C)O[C@@H](C)C3)cc2)c(=O)c2cccc(-c3cccc(C#N)c3)c12 [Embodiment 63] | 1000 to 5000 nM |
| Cc1cn(-c2ccc(N3C[C@@H](C)O[C@@H](C)C3)cc2)c(=O)c2cccc(-c3ccccc3C#N)c12 [Embodiment 64] | 500 to 1000 nM |
| Cc1cn(-c2ccc(N3C[C@@H](C)O[C@@H](C)C3)nc2)c(=O)c2cccc(-c3ccc(C(F)(F)F)cc3)c12 [Embodiment 67] | 500 to 1000 nM |
| C[C@@H]1CN(c2ccc(-n3ccc4c(-c5ccc(C#N)cc5)cccc4c3=O)cn2)C[C@H](C)O1 [Embodiment 70, 4-(2-(6-(2,6-dimethylmorpholino-4-yl)pyridin-3-yl)-1-oxo-1,2-dihydroisoquinolin-5-yl)benzonitrile] | 500 to 1000 nM |
| C[C@@H]1CN(c2ccc(-n3ccc4c(-c5ccc(OC(F)(F)F)cc5)cccc4c3=O)cn2)C[C@H](C)O1 [Embodiment 72] | 1000 to 5000 nM |
| C[C@@H]1CN(c2ccc(-n3ccc4c(-c5ccc(C(F)(F)F)cc5)cccc4c3=O)cc2)C[C@H](C)O1 [Embodiment 74] | 1000 to 5000 nM |
| C[C@@H]1CN(c2ccc(-n3ccc4c(-c5ccc(C#N)cc5)cccc4c3=O)cc2Cl)C[C@H](C)O1 [Embodiment 77, 4-(2-(3-chloro-4-((2S,6R)-2,6-dimethylmorpholino)phenyl)-1-oxo-1,2-dihydroisoquinolin-5-yl)benzonitrile] | 500 to 1000 nM |
| C[C@@H]1CN(c2ccc(-n3ccc4c(-c5ccc(C#N)cc5)cccc4c3=O)cc2C2CC2)C[C@H](C)O1 [Embodiment 80, 4-(2-(3-cyclopropyl-4-((2S,6R)-2,6-dimethylmorpholino)phenyl)-1-oxo-1,2-dihydroisoquinolin-5-yl)benzonitrile] | 1000 to 5000 nM |
| Cc1cn(-c2ccc(N3C[C@@H](C)O[C@@H](C)C3)cc2)c(=O)c2ccnc(-c3ccc(C#N)cc3)c12 [Embodiment 81, 4-(6-(4-((2S,6R)-2,6-dimethylmorpholino)phenyl)-8-methyl-5-oxo-5,6-dihydro-2,6-naphthyridin-1-yl)benzonitrile] | 1000 to 5000 nM |
| CC1CN(c2ccc(N3C[C@@H](C)O[C@@H](C)C3)cc2)C(=O)c2cccc(-c3ccc(C#N)cc3)c21 (stereo partly drawn) [Embodiment 87, 4-(2-(4-((2S,6R)-2,6-dimethylmorpholino)phenyl)-4-methyl-1-oxo-1,2,3,4-tetrahydroisoquinolin-5-yl)benzonitrile] | 100 to 500 nM |

Other lines, results leading:

| IC50 | Compound |
| --- | --- |
| 1000 to 5000 nM | Cc1cn(-c2ccc(N3C[C@@H](C)O[C@@H](C)C3)cc2)c(=O)c2cccc(-c3cccn3C)c12 [Embodiment 48] |
| 500 to 1000 nM | Cc1cn(-c2ccc(N3C[C@@H](C)O[C@@H](C)C3)cc2)c(=O)c2cccc(-c3ccncc3)c12 [Embodiment 49] |
| 500 to 1000 nM | Cc1cn(-c2ccc(N3C[C@@H](C)O[C@@H](C)C3)cc2)c(=O)c2cccc(-c3ccc(F)cc3)c12 [Embodiment 50] |
| 1000 to 5000 nM | Cc1cn(-c2ccc(N3C[C@@H](C)O[C@@H](C)C3)cc2)c(=O)c2cccc(-c3ccc(C#N)cn3)c12 [Embodiment 55] |
| 500 to 1000 nM | Cc1cn(-c2ccc(N3C[C@@H](C)O[C@@H](C)C3)cc2)c(=O)c2cccc(-c3ccccc3)c12 [Embodiment 57] |
| 500 to 1000 nM | Cc1cn(-c2ccc(N3C[C@@H](C)O[C@@H](C)C3)cc2)c(=O)c2cccc(-c3ccc(C#N)c(F)c3)c12 [Embodiment 59] |
| 500 to 1000 nM | Cc1cn(-c2ccc(N3C[C@@H](C)O[C@@H](C)C3)cc2)c(=O)c2cccc(-c3ccc(Br)cc3)c12 [Embodiment 65] |
| 500 to 1000 nM | Cc1cn(-c2ccc(N3C[C@@H](C)O[C@@H](C)C3)nc2)c(=O)c2cccc(-c3ccc(C#N)cc3)c12 [Embodiment 66] |
| 1000 to 5000 nM | Cc1cn(-c2ccc(N3C[C@@H](C)O[C@@H](C)C3)nc2)c(=O)c2cccc(-c3ccc(OC(F)(F)F)cc3)c12 [Embodiment 68] |
| 500 to 1000 nM | Cc1cn(-c2ccc(N3C[C@@H](C)O[C@@H](C)C3)cc2)c(=O)c2cccc(-c3ccc(C4CC4)cc3)c12 [Embodiment 69, 5-(4-cyclopropylphenyl)-2-(4-((2R,6S)-2,6-dimethylmorpholino)phenyl)-4-methylisoquinolin-1(2H)-one] |
| 1000 to 5000 nM | C[C@@H]1CN(c2ccc(-n3ccc4c(-c5ccc(C(F)(F)F)cc5)cccc4c3=O)cn2)C[C@H](C)O1 [Embodiment 71] |
| 500 to 1000 nM | C[C@@H]1CN(c2ccc(-n3ccc4c(-c5ccc(C#N)cc5)cccc4c3=O)cc2)C[C@H](C)O1 [Embodiment 73] |
| 1000 to 5000 nM | C[C@@H]1CN(c2ccc(-n3ccc4c(-c5ccc(OC(F)(F)F)cc5)cccc4c3=O)cc2)C[C@H](C)O1 [Embodiment 75] |
| 100 to 500 nM | C[C@@H]1CN(c2ccc(-n3cc(Cl)c4c(-c5ccc(C#N)cc5)cccc4c3=O)cc2Cl)C[C@H](C)O1 [Embodiment 76, 4-(4-chloro-2-(3-chloro-4-((2S,6R)-2,6-dimethylmorpholino)phenyl)-1-oxo-1,2-dihydroisoquinolin-5-yl)benzonitrile] |
| 500 to 1000 nM | C[C@@H]1CN(c2ccc(-n3ccc4c(-c5ccc(C#N)cc5)cccc4c3=O)cc2Br)C[C@H](C)O1 [Embodiment 79, 4-(2-(3-bromo-4-((2S,6R)-2,6-dimethylmorpholino)phenyl)-1-oxo-1,2-dihydroisoquinolin-5-yl)benzonitrile] |
| 1000 to 5000 nM | Cc1cn(-c2ccc(N3C[C@@H](C)O[C@@H](C)C3)cc2)c(=O)c2ccnc(-c3ccc(C(F)(F)F)cc3)c12 [Embodiment 82] |
| 1000 to 5000 nM | Cc1cn(-c2ccc(N3C[C@@H](C)O[C@@H](C)C3)cc2)c(=O)c2ccnc(-c3ccc(OC(F)(F)F)cc3)c12 [Embodiment 83] |
| 1000 to 5000 nM | Cc1cn(-c2ccc(N3C[C@@H](C)O[C@@H](C)C3)cc2)c(=O)c2ccnc(-c3ccc(C#N)s3)c12 [Embodiment 84] |
| 500 to 1000 nM | Cc1cn(-c2ccc(N3C[C@@H](C)O[C@@H](C)C3)cc2)c(=O)c2nccc(-c3ccc(C#N)cc3)c12 [Embodiment 85, 4-(7-(4-((2S,6R)-2,6-dimethylmorpholino)phenyl)-5-methyl-8-oxo-7,8-dihydro-1,7-naphthyridin-4-yl)benzonitrile] |
| 500 to 1000 nM | Cc1cn(-c2ccc(N3C[C@@H](C)O[C@@H](C)C3)cc2)c(=O)c2cncc(-c3ccc(C#N)cc3)c12 [Embodiment 86, 4-(7-(4-((2S,6R)-2,6-dimethylmorpholino)phenyl)-5-methyl-8-oxo-7,8-dihydro-2,7-naphthyridin-4-yl)benzonitrile] |
| ≤ 50 nM | COc1c(-c2ccc(N3C[C@@H](C)O[C@@H](C)C3)cc2)cnc2c(-c3ccc(C#N)cc3)cccc12 [Embodiment 88, 4-(3-(4-((2S,6R)-2,6-dimethylmorpholino)phenyl)-4-methoxyquinolin-8-yl) benzonitrile] |
| ≤ 50 nM | COc1c(-c2ccc(N3C[C@@H](C)O[C@@H](C)C3)cc2)cnc2c(-c3ccc(C(F)(F)F)cc3)cccc12 [Embodiment 89, (2R,6S)-4-(4-(4-methoxy-8-(4-(trifluoromethyl)phenyl)quinolin-3-yl)phenyl)-2,6-dimethylmorpholine] |
| ≤ 50 nM | COc1c(-c2ccc(N3C[C@@H](C)O[C@@H](C)C3)cc2)cnc2c(-c3ccc(OC(F)(F)F)cc3)cccc12 [Embodiment 91] |
| ≤ 50 nM | COc1c(-c2ccc(N3C[C@@H](C)O[C@@H](C)C3)cc2)cnc2c(-c3ccc(F)nc3)cccc12 [Embodiment 93] |
